This note sets out measurements from article PMC10743564, “Acceleration of Protein Degradation by 20S Proteasome-Binding Peptides Generated by In Vitro Artificial Evolution” (International Journal of Molecular Sciences, 2023).

Where no end group is shown, it is not given here. BAED = biotinylated photoreactive group derived from Sulfo-SBED

In experiment [1] the target is T1, intracellular proteasomes of U251 cells (Homo sapiens, UniProt P25787+P60900).
T1 construct: endogenous in cells; host or cells: U251, RPMI8226, SH-SY5Y
Put plainly: Intracellular proteasome CT-L activity (Proteasome-Glo) in U251 cells. It is filed as cell-based.
Protocol: Intracellular proteasome activity was measured using the Proteasome-Glo Assay reagent (Promega Co.) according to the manufacturer’s protocol [46].

Experiment [2] relates to U251 cells. Put plainly: Cell growth inhibition assay (CellTiter-Glo). It is filed as cell-based, human. Here is the method: The U251 cell line was kindly provided by Prof. Koji Kawakami (Kyoto University). RPMI8226 and SH-SY5Y cell lines were obtained from RIKEN BRC Cell Bank (Chiba, Japan). U251 and RPMI8226 cells were grown and maintained in RPMI1640 medium (Nacalai Tesque Inc.) supplemented with 10% fetal bovine serum, 100 units/mL penicillin, and 100 μg/mL streptomycin at 37 °C in 5% CO2. SH-SY5Y cells were grown and maintained in DMEM medium (Nacalai Tesque Inc.) supplemented with 10% fetal bovine serum, 100 units/mL penicillin, and 100 μg/mL streptomycin at 37 °C in 5% CO2.
U251, RPMI8226, or SH-SY5Y cells were seeded in triplicate wells in a 96-well plate at a density of 5 × 10^3 cells/well and incubated with various concentrations (0.1–100 µM) of inhibitory compounds dissolved in DMSO for 24 or 48 h. The amount of intracellular ATP was determined by CellTiter-Glo Luminescent Cell Viability Assay (Promega Co.) according to the manufacturer’s protocol. Intracellular proteasome activity was measured using the Proteasome-Glo Assay reagent (Promega Co.) according to the manufacturer’s protocol.
A general note: Cellular ATP, detected with luciferase, serves as a proxy for viable cell number.

Experiment [3] deals with 26S holoenzyme (Homo sapiens, UniProt P25787+P60900). As to the kind of experiment: Photoaffinity labeling of 26S holoenzyme. Particulars: after UV irradiation. The format is binding. The protocol:
(§1) The reaction mixture was exposed to UV light (365 nm) for 30 min on ice, and proteins were separated by SDS-PAGE, transferred onto a polyvinylidene difluoride membrane (ATTO Co., Ltd., Tokyo, Japan), and probed with horseradish peroxidase-conjugated streptavidin (Cytiva, Danaher Co., Washington, DC, USA). Chemiluminescence images were obtained using an ImageQuant LAS-4000 instrument (Cytiva). Isoelectric focusing for 2D-PAGE was performed using a DiscRun AE-6541 apparatus (ATTO Co., Ltd.) according to the manufacturer’s protocol. To identify the subunits of the 20S CP by LC-MS analysis, all bands visible following CBB staining were excised, dehydrated with acetonitrile for 10 min, and centrifuged in vacuo to dryness. Dried samples were placed in trypsin solution, and hydrolysis was carried out at 37 °C for 16 h. Reaction products were recovered using 0.1% formic acid and analyzed by LC-MS-IT-TOF (Shimadzu Corporation, Kyoto, Japan) and Mascot Version 2.4 (Matrix Science, London, UK).

Experiment [4] has as its target human 20S proteasome (Homo sapiens, UniProt P25787+P60900). Put plainly: Photoaffinity labeling of 20S CP. It is filed as binding. The following applies: UV 365 nm, 2D-PAGE, LC-MS identification. Here is the method:
After the reaction, the product was purified by reversed-phase HPLC, and molecular weight was confirmed by mass spectrometry, as described above.
as §1

With `CC(C)C[C@H](NC(=O)[C@H](Cc1ccccc1)NC(=O)c1cnccn1)B(O)O` [bortezomib], in experiment [1], the “Effect on CT-L activity of intracellular proteasomes (in words)” value was “did not increase CT-L activity to the same degree”. In addition, the “Cell death (in words)” value in experiment [2] is recorded as “induced cancer cell death”.

As for “BAED-20S-BP1(5-12): photoreactive biotinylated peptide: 20S-BP1(5-12) with N-terminal BAED group, made with Sulfo-SBED ({BAED}-SRLRHWWR)”, the “Photoaffinity labeling of 26S holoenzyme (in words)” value in experiment [3] is listed as “no detectable labeling”. Further, in experiment [4], the “Photoaffinity-labeled subunits of 20S CP” value is “α1 and β4 subunits”.
